A word on the IC50: it is the point on the concentration scale where inhibition reaches its midpoint. Low readings indicate inhibition by little substance, high ones a need for much substance.

This experiment concerns the target T1, AR-v7 (Homo sapiens, UniProt P10275).
T1 construct: expressed in transfected cells
T1 sequence (P10275 1-644 isoform P10275-3): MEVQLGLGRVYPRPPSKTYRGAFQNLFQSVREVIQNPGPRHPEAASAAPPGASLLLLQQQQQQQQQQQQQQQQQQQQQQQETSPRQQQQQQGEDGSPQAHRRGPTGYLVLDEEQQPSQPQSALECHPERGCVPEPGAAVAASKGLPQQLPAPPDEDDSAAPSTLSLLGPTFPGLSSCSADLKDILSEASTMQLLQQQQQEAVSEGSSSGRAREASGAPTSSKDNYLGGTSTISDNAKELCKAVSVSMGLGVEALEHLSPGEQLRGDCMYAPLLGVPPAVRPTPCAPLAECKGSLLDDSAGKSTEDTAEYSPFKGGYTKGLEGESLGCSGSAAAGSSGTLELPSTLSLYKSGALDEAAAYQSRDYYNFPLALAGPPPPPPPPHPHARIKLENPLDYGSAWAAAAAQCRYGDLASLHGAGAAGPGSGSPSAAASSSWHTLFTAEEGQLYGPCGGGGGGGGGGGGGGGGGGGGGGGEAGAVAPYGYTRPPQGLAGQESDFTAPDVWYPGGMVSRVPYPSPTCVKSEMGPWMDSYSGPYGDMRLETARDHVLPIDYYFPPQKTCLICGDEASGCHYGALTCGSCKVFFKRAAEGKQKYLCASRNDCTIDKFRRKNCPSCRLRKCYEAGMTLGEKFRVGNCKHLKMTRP
The experiment can be described thus: dual luciferase reporter assay, stable LNCaP cell line with AR-v7 under DOX control and MMTV-driven firefly luciferase. In kind it is cell-based. The settings on record: Reporter Assay at 24 hours; dose response starting at 50 μM, serially diluted 1:1; LNCaP cells. The text has this:
CMV-driven Renilla luciferase is also included as a control. The relative luciferase activity is the firefly luciferase activity normalized to the Renilla luciferase activity. A “dual-reporter assay” is conceptually similar to the single reporter assay described above, and can correct for experimental variation (e.g., cell number, transfection efficiency, etc.). In the case of a dual-reporter assay, a “reporter system” is used, where cells are transfected with two plasmids, the first plasmid comprising the regulatory gene of interest and a first reporter, and the second plasmid comprising a constitutive promoter and a second reporter, wherein the second reporter and the first reporter have biologically distinct activities. The ratio of the first reporter activity (e.g., controlled by the regulatory gene of interest) relative to the second reporter activity (e.g., controlled by the constitutive promoter) corrects for experimental variation. […] In certain embodiments, one or more compounds selected from the SMM screen are submitted to a screen comprising a dual-luciferase assay, the dual-luciferase assay further comprising (i) a first vector comprising a first promoter and a first reporter and (ii) a second vector comprising a second promoter and a second reporter. In certain embodiments, the first vector comprises a first promoter and a first reporter, wherein the first promoter is the MMTV promoter and the first reporter is firefly luciferase. Activation of the androgen receptor, or variant thereof, will promote increased expression of the MMTV-driven firefly luciferase. In certain embodiments, the second vector comprises a second promoter and a second reporter, wherein the second promoter is the cytomegalovirus (CMV) promoter and the second reporter is Renilla luciferase. The CMV promoter is constitutively activated, leading to a basal expression level of Renilla luciferase that serves as a control and can be used to normalize the MMTV-driven firefly luciferase expression level. […] In an embodiment, the first luciferase is firefly luciferase. In an embodiment, the second luciferase is Renilla luciferase. […] In certain embodiments, the firefly luciferase is under control of an MMTV promoter that contains one or more androgen response element (ARE). […] In total, 50,000 molecules were screened against the androgen receptor variant AR-v7 (exons 1-3 truncate of AR-FL) using a small molecule microarray (SMM) (see FIG. 1). […] PSA was used as a readout for both AR-v7 and AR activity in the qPCR assay in LNCaP cells. Selected SMM assay positives were administered to cells at two doses (10 and 30 μM) and PSA expression was evaluated using the Single Shot qPCR kit (BioRad) (see FIG. 2).
For the molecule `CCNc1ncc(-c2cc(-c3cc(C)sc3C)nc(N)c2C#N)cn1` [KI-ARv-05, 2-amino-6-(2,5-dimethyl-3-thienyl)-4-[2-(ethylamino)pyrimidin-5-yl]nicotinonitrile], the IC50 worked out at 50 µM.
Molecule `COc1ccc(N2CCN(C(=O)c3sc4ncnc(NC[C@H]5C[C@@H]6C=C[C@H]5C6)c4c3C)CC2)cc1` (relative stereo) [KI-ARv-09, N-[(1R*,2S*,4R*)-bicyclo[2.2.1]hept-5-en-2-ylmethyl]-6-{[4-(4-methoxyphenyl)-1-piperazinyl]carbonyl}-5-methylthieno[2,3-d]pyrimidin-4-amine] displayed an IC50 of more than 50 µM.
`Cc1cc(N2CCC(NCc3cccc(N4CCCC4)c3)CC2)nc(N)n1` [KI-ARv-06, 4-methyl-6-{4-[(3-pyrrolidin-1-ylbenzyl)amino]piperidin-1-yl}pyrimidin-2-amine] registered an IC50 of 14.8 µM.
Consider `O=C(NCC[C@@H]1C[C@@H]2C=C[C@H]1C2)c1cccc(OC2CCN(C(=O)C3CC3)CC2)c1` (relative stereo) [KI-ARv-01, N-{2-[(1S*,2S*,4S*)-bicyclo[2.2.1]hept-5-en-2-yl]ethyl}-3-{[1-(cyclopropylcarbonyl)-4-piperidinyl]oxy}benzamide], for which 5.43 µM corresponded to half-maximal inhibition (IC50).
In turn, `Cc1c(C(=O)N(C)Cc2cccc3ncccc23)sc2ncnc(NCC3C[C@@H]4C=C[C@H]3C4)c12` (stereo partly drawn) [KI-ARv-02, 4-((((1R,4R)-bicyclo[2.2.1]hept-5-en-2-yl)methyl)amino)-N,5-dimethyl-N-(quinolin-5-ylmethyl)thieno[2,3-d]pyrimidine-6-carboxamide] registered an IC50 of 6.86 µM.
As to `Fc1ccc(N2CCCN(CC3[C@H]4CNC[C@@H]34)CC2)cc1` (relative stereo) [KI-ARv-04, (1R*,5S*,6r)-6-{[4-(4-fluorophenyl)-1,4-diazepan-1-yl]methyl}-3-azabicyclo[3.1.0]hexane], the IC50 was 11.3 µM.
Then `Cc1c(C(=O)NCc2ccncc2)sc2ncnc(NC[C@H]3C[C@@H]4C=C[C@H]3C4)c12` (relative stereo) [RO3682, 4-{[(1R*,2S*,4R*)-bicyclo[2.2.1]hept-5-en-2-ylmethyl]amino}-5-methyl-N-(4-pyridinylmethyl)thieno[2,3-d]pyrimidine-6-carboxamide], with 12.5 µM; and `CS(=O)(=O)N1CCC(Oc2cccc(C(=O)NCC[C@@H]3C[C@@H]4C=C[C@H]3C4)c2)CC1` (relative stereo) [KI-ARv-08, N-{2-[(1S*,2S*,4S*)-bicyclo[2.2.1]hept-5-en-2-yl]ethyl}-3-{[1-(methylsulfonyl)-4-piperidinyl]oxy}benzamide], with 24.7 µM.

The values are drawn from US20190060296A1, “DISCOVERY OF SMALL MOLECULES THAT TARGET THE ANDROGEN RECEPTOR AND USES” (Massachusetts Institute of Technology, priority 2017, published 2019).
